These are literature values, as cited in US10548906B2, “Methods of promoting hepatic regeneration” (Intercept Pharmaceuticals, Inc., priority 2015, dated 2020).

The test system of series [1] is Ntcp. The following applies: mice with intrahepatic (but not extrahepatic) cholestasis; cited from earlier work.
In series [2] the test system is cholestatic animals. The following applies: cited from earlier work.
Series [3] deals with mice. The following applies: diet enriched with cholic acid, FXR dependent; cited from earlier work.

Take `CC(C)c1onc(-c2c(Cl)cccc2Cl)c1COc1ccc(/C=C/c2cccc(C(=O)O)c2)c(Cl)c1` [GW4064]: in series [1], the Ntcp regulation result is “loss of Ntcp suppression”.

Turning to `Cc1c(-c2cnccn2)ssc1=S` [oltipraz], the biliary injury result in series [2] is reported as “increase in biliary injury”.

Take `C[C@H](CCC(=O)O)[C@H]1CC[C@H]2[C@@H]3[C@@H](O)C[C@@H]4C[C@H](O)CC[C@]4(C)[C@H]3CC[C@]12C` [ursodeoxycholic acid]: the biliary injury result in series [2] is reported as “increase in biliary injury”.

`C[C@H](CCC(=O)O)[C@H]1CC[C@H]2[C@@H]3[C@H](O)C[C@@H]4C[C@H](O)CC[C@]4(C)[C@H]3C[C@H](O)[C@]12C` [cholic acid]: the liver growth result in series [3] is reported as “induced spontaneous liver growth”.
